Laboratory results: patent publication US20060063736A1, “Compositions and methods for inhibiting mucin-type O-linked glycosylation” (priority 2004, published 2006)

Experiments:
rppGalNAcT-7 = target: T1, rppGalNAcT-7 (Rattus norvegicus, UniProt Q9R0C5); experiment: Radiolabel capture assay, rppGalNAcT-7; type: biochemical; conditions: MUC5AC glycopeptide
T1 construct: plasmids encoding truncated secreted ppGalNAcTs-1 to −5, -7, -10 and -11; made in house; host or cells: COS-7
T1 sequence (Q9R0C5 30-657 limits assumed): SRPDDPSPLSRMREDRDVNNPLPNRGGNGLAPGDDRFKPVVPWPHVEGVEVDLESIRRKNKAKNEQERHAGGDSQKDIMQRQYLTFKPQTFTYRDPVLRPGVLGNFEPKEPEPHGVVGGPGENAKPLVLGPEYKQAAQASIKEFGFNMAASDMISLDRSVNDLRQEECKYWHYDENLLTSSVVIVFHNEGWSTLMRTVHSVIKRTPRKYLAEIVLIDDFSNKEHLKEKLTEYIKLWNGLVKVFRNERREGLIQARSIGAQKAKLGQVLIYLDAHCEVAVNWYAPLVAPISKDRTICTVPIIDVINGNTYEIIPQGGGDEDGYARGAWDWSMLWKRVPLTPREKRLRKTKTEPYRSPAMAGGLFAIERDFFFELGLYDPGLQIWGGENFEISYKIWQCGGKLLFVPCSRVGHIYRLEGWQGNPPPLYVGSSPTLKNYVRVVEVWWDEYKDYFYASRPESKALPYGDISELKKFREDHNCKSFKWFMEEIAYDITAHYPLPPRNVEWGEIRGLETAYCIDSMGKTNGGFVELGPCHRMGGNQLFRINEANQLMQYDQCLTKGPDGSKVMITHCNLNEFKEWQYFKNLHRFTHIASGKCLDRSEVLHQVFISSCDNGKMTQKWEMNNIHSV
Experimental: Radiolabel capture assays using ^14C-labeled UDP-GalNAc were performed as previously described with various concentrations of 1-68A or 2-68A in 2% DMSO. Ten Hagen et al. (2001) J. Biol. Chem. 276:17395-17404.
Table 1. IC50 values for 1-68A and 2-68A with ppGalNAcTs-1 to −5, -7, -10, -11, β1-4GalT and α1-3GalT. The requirement of glycopeptides as substrates for ppGalNAcT-7 and -10 precluded the use of the ELLA, as both the substrate and product bind HPA-HRP. Thus, the radiolabel capture assay was employed to measure the IC50 values of 1-68A and 2-68A with ppGalNAcT-7 and -10 using MUC5AC (GTTPSPVPTTSTTSAP; SEQ ID NO:15) glycopeptide, previously shown to be substrate for both enzymes. Ten Hagen et al. (1999) J. Biol. Chem. 274:27867-27874; and Ten Hagen et al. (2001) J. Biol. Chem. 276:17395-17404. IC50 values of 1-68A and 2-68A with ppGalNAcT-5 were performed with α-FLAG purified enzyme and radiolabel capture assay, due to low activity and stability of the crude enzyme. m=murine, r=rattus.

[1] = target: T2, β1-4galactosyltransferase (β1-4GalT) (Bos taurus, UniProt P08037); experiment: Continuous assay for β1-4GalT activity; type: biochemical, bovine; conditions: for inhibitory activity against β1-4GalT: highest concentration tested (500 μM)
T2 construct: purchased Calbiochem
T2 sequence (P08037 1-402): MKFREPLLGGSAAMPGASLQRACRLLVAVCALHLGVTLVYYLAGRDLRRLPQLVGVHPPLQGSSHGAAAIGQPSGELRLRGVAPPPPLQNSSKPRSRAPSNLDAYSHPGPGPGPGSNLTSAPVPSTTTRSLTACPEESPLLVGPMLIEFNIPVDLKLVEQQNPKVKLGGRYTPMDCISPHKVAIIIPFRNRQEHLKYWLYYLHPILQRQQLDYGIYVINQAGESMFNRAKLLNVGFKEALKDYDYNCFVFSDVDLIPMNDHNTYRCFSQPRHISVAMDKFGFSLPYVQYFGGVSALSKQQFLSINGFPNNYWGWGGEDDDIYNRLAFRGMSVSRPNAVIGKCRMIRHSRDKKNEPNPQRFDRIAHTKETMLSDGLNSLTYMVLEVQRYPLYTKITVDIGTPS
Experimental: The enzymatic reactions contained the following components in a final volume of 100 μL: 20 mM MnCl2, 100 mM sodium cacodylate, pH 6.5, 5 U of pyruvate kinase, 5 U of lactate dehydrogenase, 2 mM PEP, 0.2 mM NADH with 0.4 mU of β1-4GalT, 1 mM βOMeGlcNAc, 25 μM UDP-Gal or 1.0 mU of α1-3GalT, 1 mM LacNAc, 100 μM UDP-Gal and various concentrations of 1-68A or 2-68A in 2.5% DMSO. The reaction mixtures were incubated at 37° C. for 10 min before the reaction was initiated by the addition of UDP-Gal. The change in absorbance was monitored over 20 min at 340 nm.
To determine the selectivity of the compounds among the broader family of UDP-sugar utilizing enzymes, 1-68A and 2-68A were tested against bovine β1-4galactosyltransferase (β1-4GalT) and porcine α1-3galactosyltransferase (α1-3GalT), using a previously reported continuous colorimetric assay. Fitzgerald et al. (1970) Anal. Biochem. 36:43-61. Neither compound was active against β1-4GalT or α1-3GalT at the highest concentration tested (500 μM) (Entries 9 and 10, Table 1).

## O=c1ccn([C@@H]2O[C@H](CON=Cc3ccc(O)c(O)c3O)[C@@H](O)[C@H]2O)c(=O)[nH]1 [1-68A]
rppGalNAcT-7
  IC50: 22 ± 2 µM
[1]
  IC50: > 500 µM
  inhibitory activity against β1-4GalT: lack of inhibitory activity

## O=C(CON=Cc1ccc(O)c(O)c1O)NC[C@H]1O[C@@H](n2ccc(=O)[nH]c2=O)[C@H](O)[C@@H]1O [2-68A]
rppGalNAcT-7
  IC50: 27 ± 2 µM
[1]
  IC50: > 500 µM
  inhibitory activity against β1-4GalT: lack of inhibitory activity
